Legend:
[1] = tested on: Staphylococcus aureus (S. aureus) 11540 strain; test: Standard microdilution MIC assay, S. aureus; format: cell-based
Procedure, shortened: (§1)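 Broth microdilution per CLSI M7-A8 guidelines, with reference-strain quality control run in the same design; MIC determined per strain. Activity scored +/− against a 16 micrograms/mL cutoff.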

[2] = tested on: Escherichia coli strain ATCC25922; test: Standard microdilution MIC assay, E. coli; format: cell-based
Procedure, shortened: as §1

For `CC(=N)NCC[C@@H]1CCC[C@@H](c2ccc(-n3cc4cc(-c5cc(CCC[C@@H](N)CF)cc(C(F)(F)F)c5)[nH]c4nc3=O)cc2F)N1` [Compound 205], the MIC [1] was at most 16 µg/mL and the MIC [2] was at most 16 µg/mL.
Work on `CC(=N)NCC[C@@H]1CCC[C@@H](c2ccc(-n3cc4cc(-c5cc(CCC[C@@H](N)C6CC6)cc(C(F)(F)F)c5)[nH]c4nc3=O)cc2)N1` [Compound 206] yielded an MIC [1] of at most 16 µg/mL and an MIC [2] of at most 16 µg/mL.
For `CC(=N)NCC[C@@H]1CCC[C@@H](c2ccc(-n3cc4cc(-c5cc(CCC[C@@H](N)C6CC6)cc(OC(F)(F)F)c5F)[nH]c4nc3=O)cc2)N1` [Compound 207], the MIC [1] was at most 16 µg/mL and the MIC [2] was at most 16 µg/mL.
In the case of `CC(=N)NCC[C@@H]1CCC[C@@H](c2ccc(-n3cc4cc(-c5cc(CCC[C@@H](N)C6CC6)cc(OC(F)(F)F)c5F)[nH]c4nc3=O)cc2F)N1` [Compound 208], the MIC [1] is reported as at most 16 µg/mL and the MIC [2] is reported as at most 16 µg/mL.
In the case of `COc1cc(-n2cc3cc(-c4cc(CCC[C@@H](N)CF)cc(C(F)(F)F)c4)[nH]c3nc2=O)ccc1[C@@H]1CCC[C@@H](CCNC(C)=N)N1` [Compound 209], the MIC [1] is reported as at most 16 µg/mL and the MIC [2] is reported as at most 16 µg/mL.
In the case of `COC[C@H](N)CCCc1cc(-c2cc3cn(-c4ccc([C@@H]5CCC[C@@H](CCNC(C)=N)N5)c(OC)c4)c(=O)nc3[nH]2)cc(C(F)(F)F)c1` [Compound 210], the MIC [1] is reported as at most 16 µg/mL and the MIC [2] is reported as at most 16 µg/mL.
With `CC(=N)NCC[C@@H]1CCC[C@@H](c2ccc(-n3cc4cc(-c5cc(CCC[C@@H](N)C6CC6)cc(C(F)(F)F)c5)[nH]c4nc3=O)cc2F)N1` [Compound 211] the MIC [1] was at most 16 µg/mL and the MIC [2] was at most 16 µg/mL.
With `CC(=N)NCC[C@@H]1CCC[C@@H](c2ccc(-n3cc4cc(-c5cc(CCC[C@@H](N)C6CC6)cc(C(F)(F)F)c5F)[nH]c4nc3=O)cc2)N1` [Compound 212] the MIC [1] was at most 16 µg/mL and the MIC [2] was at most 16 µg/mL.
With `CC(=N)NCC[C@@H]1CCC[C@@H](c2ccc(-n3cc4cc(-c5cc(CCC[C@@H](N)C6CC6)cc(OC(F)(F)F)c5F)[nH]c4nc3=O)cc2OC(F)(F)F)N1` [Compound 213] the MIC [1] was at most 16 µg/mL and the MIC [2] was at most 16 µg/mL.
Molecule `COC[C@H](N)CCCc1cc(-c2cc3cn(-c4ccc([C@@H]5CCC[C@@H](CCNC(C)=N)N5)c(OC(F)(F)F)c4)c(=O)nc3[nH]2)cc(C(F)(F)F)c1` [Compound 214] has an MIC [1] of at most 16 µg/mL and an MIC [2] of at most 16 µg/mL.
`CC(=N)NCC[C@@H]1CCC[C@@H](c2ccc(-n3cc4cc(-c5cc(CCC[C@@H](N)CF)cc(C(F)(F)F)c5)[nH]c4nc3=O)cc2OC(F)(F)F)N1` [Compound 215] was tested, and the MIC [1] was at most 16 µg/mL and the MIC [2] was at most 16 µg/mL.
`COC[C@H](N)CCCc1cc(-c2cc3cn(-c4ccc([C@@H]5CCC[C@@H](CCNC(C)=N)N5)c(OC(F)(F)F)c4)c(=O)nc3[nH]2)c(F)c(C(F)(F)F)c1` [Compound 216] showed an MIC [1] of at most 16 µg/mL and an MIC [2] of at most 16 µg/mL.
In the case of `CC(=N)NCC[C@@H]1CCC[C@@H](c2ccc(-n3cc4cc(-c5cc(CCC[C@@H](N)C6CC6)cc(C(F)(F)F)c5)[nH]c4nc3=O)cc2OC(F)(F)F)N1` [Compound 217], the MIC [1] is reported as at most 16 µg/mL and the MIC [2] is reported as at most 16 µg/mL.
`CC(=N)NCC[C@@H](NCc1ccc(-n2cc3cc(-c4cc(CCC[C@@H](N)CF)cc(Cl)c4F)[nH]c3nc2=O)cc1)C1CC1` [Compound 218] showed an MIC [1] of at most 16 µg/mL and an MIC [2] of at most 16 µg/mL.
`CC(=N)NCC[C@@H](NCc1ccc(-n2cc3cc(-c4cc(CCC[C@@H](N)C5CC5)cc(Cl)c4F)[nH]c3nc2=O)cc1)C1CC1` [Compound 219] was tested, and the MIC [1] was at most 16 µg/mL and the MIC [2] was at most 16 µg/mL.
`C=C[C@H](N)CCCc1cc(Cl)c(F)c(-c2cc3cn(-c4ccc(CN[C@H](CCNC(C)=N)C5CC5)cc4)c(=O)nc3[nH]2)c1` [Compound 220] gave an MIC [1] of at most 16 µg/mL and an MIC [2] of at most 16 µg/mL.
For `CC(=N)NCC[C@@H]1CCC[C@@H](c2ccc(-n3cc4cc(-c5cc(CCC[C@@H](N)CF)cc(C(F)(F)F)c5F)[nH]c4nc3=O)cc2F)N1` [Compound 221], the MIC [1] was at most 16 µg/mL and the MIC [2] was at most 16 µg/mL.
For `COC[C@H](N)CCCc1cc(-c2cc3cn(-c4ccc(CN[C@H](CCNC(C)=N)C5CC5)cc4)c(=O)nc3[nH]2)cc(C(F)(F)F)c1` [Compound 222], the MIC [1] was at most 16 µg/mL and the MIC [2] was at most 16 µg/mL.
